Measured values as given in patent publication US11077167B2, “Agent for promoting skeletal muscle injury repair” (Osaka University, priority 2017, dated 2021).

What was measured:
mesenchymal cell = details: Patent Literature 2; cited from earlier work
[1] = system: Human skeletal muscle myoblasts (HSMMs); experiment: Cell migratory capacity (cell-denuded area); format: cell-based; details: SV peptide 20 ng/mL
Protocol: Human skeletal muscle myoblasts (HSMMs) were purchased from Lonza and used. The medium used for HSMM culture was the supplier's recommended medium (Skeletal Muscle Growth Media-2 supplemented with SingleQuots Kit).
Human skeletal muscle satellite cells and human skeletal muscle myoblasts were separately cultured on 60-mm (diameter) dishes (Iwaki) to 100% confluency. From each dish, a 2-mm-wide strip of cells were removed, and the medium was replaced with a medium containing the SV peptide (20 ng/mL, SV group), the random SV (20 ng/mL, random SV group), or PBS (PBS group). Thereafter, culture was continued. Images were taken with a digital camera mounted on a phase-contrast microscope every 12 hours. The cell-denuded area was measured using the image-analysis software ImageJ (NIH, USA). The cell migration percentage was determined by calculating the percentage of reduction in the cell-denuded area relative to the value immediately after cell removal.

[2] = system: muscle injury model rats (incised masseter muscles on both sides); experiment: Histological staining of masseter muscles at postoperative week 1, Example 1; format: in vivo, Jcl:SD rats; details: P<0.05, t-test
Protocol: (§1) Incisions were made in masseter muscles on both sides in Jcl:SD rats (10 weeks old). Immediately after muscle incision, 1 mL each of the SV peptide (20 ng/mL) was intramuscularly administered into several sites surrounding the cut surfaces. The incision on each side was made along a straight line connecting the lateral angle of the eye and the mandibular angle, extending in depth from the fascia on the skin side to the lateral periosteum on the mandibular ramus. The cut surfaces were subjected to electrocoagulation with an electric scalpel for the arrest of bleeding (see FIG. 1).
This experiment was performed on rats subjected to incision of masseter muscles on both sides and subsequent administration of the SV peptide into the incised left masseter muscle without administration into the incised right masseter muscle (control). Each rat was euthanized at postoperative week 1, and the masseter muscles on both sides were excised. Histological sections were prepared by the usual method and subjected to various types of staining. The number of immature muscle fibers with central nuclei, which were muscle fibers involved in muscle repair, and the number of blood vessels were counted on HE-staining specimens. The masseter muscle was divided into upper and lower halves in the coronal plane, and 2 slices each of the upper and lower halves were used for counting. Counting was performed in 5 fields of view in each slice. The area of granulation tissue formed on the cut surfaces was measured on sirius red-staining specimens (type I and type III collagens were stained) using an image-analysis software. The sections were immunostained for myogenin, a marker for myotube cells, and the number of myogenin-positive cells was counted using an image-analysis software.

[3] = system: muscle injury model rats (incised masseter muscles on both sides); experiment: Behavioral physiological experiment (feeding behavior, body weight), Example 1; format: in vivo, Jcl:SD rats; details: 1 mL intramuscular
Protocol: as §1
Feeding behavior and body weight of each rat was monitored preoperatively and 1 and 2 weeks postoperatively. More specifically, each rat was housed in a transparent plastic cage of 30 cm in length×30 cm in width×30 cm in height, and the behavior was recorded on video cameras during the active time of rats (18:00 to 22:00). Food intake and mastication time were measured, and the food intake per unit of mastication time (feeding efficiency) was calculated. This experiment was performed on a muscle injury model subjected to administration of the SV peptide into the incised masseter muscles on both sides (SV group) and on a muscle injury model subjected to administration of PBS into the incised masseter muscles on both sides (PBS group).

[4] = system: muscle injury model rats (incised masseter muscles on both sides); experiment: In vivo skeletal muscle forming capability (HE, MyoD, myogenin staining at postoperative week 1), Example 4; parameters: species or system Jcl:SD rats
Protocol: In the same manner as in Example 2, incisions were made in masseter muscles on both sides in Jcl:SD rats (10 weeks old) under anesthesia, and immediately after that, the rats were subjected to administration of 1 mL of the SV peptide (20 ng/mL) or 1 mL of PBS into the incised left masseter muscle without administration into the incised right masseter muscle. The two groups were called “SV group” and “PBS group”. Each rat was euthanized at postoperative week 1, and the masseter muscles on both sides were excised. The masseter muscles were embedded in paraffin and transversally sliced into histological sections by the usual method. The sections were subjected to HE staining, immunostaining with an anti-MyoD antibody and immunostaining with an anti-myogenin antibody. The anti-MyoD antibody used was an anti-mouse MyoD antibody (Abcam), and the anti-myogenin antibody used was an anti-mouse myogenin antibody (Abcam). A biotin-labeled anti-rabbit IgG antibody (DAKO) was used as a secondary antibody.
The area of granulation tissue formed on the cut surfaces was measured on the HE-staining specimens using the image-analysis software ImageJ (NIH, USA). The granulation tissue area ratios in the SV group and the PBS group were separately calculated using the following formula. […]
Images of the MyoD-immunostained specimens were taken with a digital camera mounted on a microscope, and the number of MyoD-positive nuclei in the muscle tissue area extending 2.5 mm on each side of the muscle incision site was counted. The MyoD-positive ratios in the SV group and the PBS group were separately calculated using the following formula. […]
Images of the myogenin-immunostained specimens were taken with a digital camera mounted on a microscope, and the number of myogenin-positive nuclei in the muscle tissue area extending 2.5 mm on each side of the muscle incision site was counted. The myogenin-positive ratios in the SV group and the PBS group were separately calculated using the following formula. […]

SVVYGLR [SV peptide]
mesenchymal cell proliferation (mesenchymal cell): promotes mesenchymal cell proliferation
cell migratory capacity (cell migration percentage) ([1]; 36 and 48 hours after cell removal): significantly different from that in the PBS group or the random SV group
cell migratory capacity (cell migration percentage) ([1]; 24 hours after cell removal and thereafter): higher than that in the PBS group or the random SV group
number of muscle fibers with central nuclei ([2]; HE staining, SV peptide side vs control side): significantly larger on the SV peptide side than that on the control side
number of blood vessels per field of view ([2]; HE staining, SV peptide side vs non-administration control side): significantly larger on the SV peptide side than that on the control side
number of myogenin-positive nuclei per field of view ([2]; myogenin immunostaining, SV peptide side vs control side): significantly larger on the SV peptide side than that on the control side
area of granulation tissue formed on cut surfaces ([2]; sirius red staining, SV peptide side vs control side): significantly smaller on the SV peptide side than that on the control side
feeding efficiency (food intake per unit of mastication time) ([3]; postoperative week 1, relative to preoperative value = 1, SV peptide 20 ng/mL): reduced
feeding efficiency (food intake per unit of mastication time) ([3]; postoperative week 2, relative to preoperative value = 1, SV peptide 20 ng/mL): recovered to almost the preoperative level
granulation tissue area ratio (administration side / non-administration side) ([4]; HE staining): significant reduction in granulation tissue formation
MyoD-positive ratio (administration side / non-administration side) ([4]; MyoD immunostaining, SV group vs PBS group): significant increase of MyoD-positive cells as compared with the PBS group
myogenin-positive ratio (administration side / non-administration side) ([4]; myogenin immunostaining, SV group vs PBS group): significant increase of myogenin-positive cells as compared with the PBS group
